# Source: publication PMC7408349, “Synthesis and Anticancer Activity of Dimeric Polyether Ionophores” (Biomolecules, 2020)
# Columns and labels:
# [1] = system: JIMT-1 cells (human breast cancer cell line); experiment: In vitro antiproliferative activity, SRB assay, JIMT-1; type: cell-based; settings: mean ± SD, LAS, MON, SAL as sodium salts, '---' = inactive (undetectable IC50 in tested concentration range)
# Description: (§1) Each experiment was repeated at least three times separately.
# [2] = system: BALB/3T3 cells (normal embryonic fibroblasts); experiment: Cytotoxicity on non-tumor cells, SRB assay, BALB/3T3; type: cell-based, murine; settings: Mus musculus, non-tumor cell line, 72 h incubation, mean ± SD, '---' = inactive (undetectable IC50 in tested concentration range)
# Description: as §1
# [3] = system: MCF10A cells (normal mammary epithelial cell line); experiment: Cytotoxicity on non-tumor cells, SRB assay, MCF10A; type: cell-based; settings: Homo sapiens, MCF-10A, 72 h incubation, mean ± SD, '---' = inactive (undetectable IC50 in tested concentration range)
# Description: as §1
# [4] = system: LoVo cells (human colon adenocarcinoma, drug-sensitive variant); experiment: In vitro antiproliferative activity, SRB assay, LoVo; type: cell-based; settings: 72 h incubation, mean ± SD, LAS, MON, SAL as sodium salts
# Description: as §1
# [5] = system: MV-4-11 cells (human acute myeloid leukemia cell line); experiment: In vitro antiproliferative activity, SRB assay, MV-4-11; type: cell-based; settings: MV4-11, 72 h incubation, mean ± SD, LAS, MON, SAL as sodium salts
# Description: as §1
# [6] = system: MCF-7 cells (human breast cancer cell line); experiment: In vitro antiproliferative activity, SRB assay, MCF-7; type: cell-based; settings: MCF7, 72 h incubation, mean ± SD, LAS, MON, SAL as sodium salts, '---' = inactive (undetectable IC50 in tested concentration range)
# Description: as §1
# [7] = system: SKBR-3 cells (human breast cancer cell line); experiment: In vitro antiproliferative activity, SRB assay, SKBR-3; type: cell-based; settings: mean ± SD, LAS, MON, SAL as sodium salts
# Description: as §1
# [8] = In vitro antiproliferative activity, SRB assay, LoVo/DX
# [9] = system: LoVo/DX cells (doxorubicin-resistant human colon adenocarcinoma sub-line, ABCB1 overexpression); experiment: as above; settings: Homo sapiens, LoVo/DX, 72 h, read-out: IC50 LoVo/DX
# [10] = Homo sapiens, JIMT-1, 72 h incubation
# [11] = Homo sapiens, SK-BR-3, 72 h incubation
# [12] = mouse (BALB/3T3), human (LoVo/DX)
Structure (SMILES),"IC50 [1, 10] [nM]",IC50 [2] [nM],IC50 [3] [nM],IC50 [4] [nM],IC50 [5] [nM],IC50 [6] [nM],"IC50 [7, 11] [nM]",selectivity ratio at 72 h ([8]; human),"selectivity ratio at 72 h [8, 12]",IC50 [9] [nM],IC50 ([1]; 72 h incubation) [nM],IC50 ([7]; 72 h incubation) [nM],selectivity ratio at 72 h (in vitro; human),selectivity ratio at 72 h (in vitro; [12])
"C=C(C)[C@@H]1CC[C@]2(C(=O)O)CC[C@]3(C)[C@H](CC[C@@H]4[C@@]5(C)CC[C@H](O)C(C)(C)[C@@H]5CC[C@]43C)[C@@H]12 [BET, betulinic acid]",9900 ± 2320,84800 ± 10000,7230 ± 1240,16500 ± 6560,1420 ± 970,12600 ± 1570,7470 ± 1160,0.81,9.47,8960 ± 1080,,,,
"N.N.[Cl][Pt][Cl] [CIS, cisplatin]",,,,,,,,,,,8230,4170,,
"COc1cccc2c1C(=O)c1c(O)c3c(c(O)c1C2=O)C[C@@](O)(C(=O)CO)C[C@@H]3O[C@H]1C[C@H](N)[C@H](O)[C@H](C)O1 [DX, doxorubicin]",400 ± 100,260 ± 140,170 ± 30,110 ± 4,20 ± 4,130 ± 50,110 ± 10,0.02,0.03,8740 ± 1460,,,,
"CC[C@@H](C(=O)[C@@H](C)[C@@H](O)[C@H](C)CCc1ccc(C)c(O)c1C(=O)O)[C@H]1O[C@](CC)([C@H]2CC[C@](O)(CC)[C@H](C)O2)C[C@@H]1C [LAS, lasalocid acid]",5550,9110 ± 3650,6810 ± 2850,4050 ± 1020,1960 ± 650,4440 ± 1340,1370 ± 10,1.5,2,4550 ± 270,,,,
"CC[C@@]1([C@@H]2O[C@@H]([C@H]3O[C@@](O)(CO)[C@H](C)C[C@@H]3C)C[C@@H]2C)CC[C@H]([C@]2(C)CC[C@]3(C[C@H](O)[C@@H](C)[C@@H]([C@@H](C)[C@@H](OC)[C@H](C)C(=O)O)O3)O2)O1 [MON, monensin]",1170 ± 140,1100 ± 240,870 ± 230,90 ± 60,30 ± 20,510 ± 120,40 ± 20,,,260 ± 110,,,3.35,4.23
"CC[C@@H](C(=O)[C@@H](C)[C@@H](O)[C@H](C)[C@@H]1O[C@@H]([C@@H](CC)C(=O)O)CC[C@@H]1C)[C@H]1O[C@]2(C=C[C@@H](O)[C@]3(CC[C@@](C)([C@H]4CC[C@](O)(CC)[C@H](C)O4)O3)O2)[C@H](C)C[C@@H]1C [SAL, salinomycin]",2670,1550 ± 860,1280 ± 460,250 ± 70,100 ± 30,930 ± 330,270,,,610 ± 210,,,2.1,2.54
"C=C(C)[C@@H]1CC[C@]2(C(=O)NCc3cn([C@H]4C=C[C@]5(O[C@H]([C@@H](CC)C(=O)[C@@H](C)[C@@H](O)[C@H](C)[C@@H]6O[C@@H]([C@@H](CC)C(=O)O)CC[C@@H]6C)[C@@H](C)C[C@H]5C)O[C@@]45CC[C@@](C)([C@H]4CC[C@](O)(CC)[C@H](C)O4)O5)nn3)CC[C@]3(C)[C@H](CC[C@@H]4[C@@]5(C)CC[C@H](O)C(C)(C)[C@@H]5CC[C@]43C)[C@@H]12 [compound 18, Salinomycin-betulinic acid dimer]",7280 ± 3110,4870 ± 1560,10300 ± 4470,430 ± 130,100 ± 90,4190 ± 1820,340 ± 130,,,14100 ± 6900,,,0.73,0.35
"C=C(C)[C@@H]1CC[C@]2(C(=O)OCc3cn([C@H]4C=C[C@]5(O[C@H]([C@@H](CC)C(=O)[C@@H](C)[C@@H](O)[C@H](C)[C@@H]6O[C@@H]([C@@H](CC)C(=O)O)CC[C@@H]6C)[C@@H](C)C[C@H]5C)O[C@@]45CC[C@@](C)([C@H]4CC[C@](O)(CC)[C@H](C)O4)O5)nn3)CC[C@]3(C)[C@H](CC[C@@H]4[C@@]5(C)CC[C@H](O)C(C)(C)[C@@H]5CC[C@]43C)[C@@H]12 [compound 19, Salinomycin-betulinic acid dimer]",7090 ± 2220,6220 ± 1440,7020 ± 2440,2660 ± 980,290 ± 140,6870 ± 3280,600 ± 260,,,,,,,
"C=C(C)[C@@H]1CC[C@]2(C(=O)O)CC[C@]3(C)[C@H](CC[C@@H]4[C@@]5(C)CC[C@H](OC(=O)OCc6cn([C@H]7C=C[C@]8(O[C@H]([C@@H](CC)C(=O)[C@@H](C)[C@@H](O)[C@H](C)[C@@H]9O[C@@H]([C@@H](CC)C(=O)O)CC[C@@H]9C)[C@@H](C)C[C@H]8C)O[C@@]78CC[C@@](C)([C@H]7CC[C@](O)(CC)[C@H](C)O7)O8)nn6)C(C)(C)[C@@H]5CC[C@]43C)[C@@H]12 [compound 20, Salinomycin-betulinic acid dimer]",14700 ± 4880,18700 ± 4570,30300 ± 13800,5180 ± 720,1920 ± 820,21700 ± 5280,3250 ± 240,,,48600 ± 11800,,,0.62,0.39
